{"source": "paper PMC6853638", "about": "“TMC1 is an essential component of a leak channel that modulates tonotopy and excitability of auditory hair cells in mice” (eLife, 2019)", "key": {"[1]": {"target": "T1, cysteine-substituted TMC1 constructs (Mus musculus, UniProt Q8R4P5, N447C)", "T1 construct": "control full-length TMC1 (TMC1_WT); expressed in transfected cells; host or cells: Tmc1-knockout mouse OHCs, injectoporation", "T1 sequence (Q8R4P5 1-757 N447C)": "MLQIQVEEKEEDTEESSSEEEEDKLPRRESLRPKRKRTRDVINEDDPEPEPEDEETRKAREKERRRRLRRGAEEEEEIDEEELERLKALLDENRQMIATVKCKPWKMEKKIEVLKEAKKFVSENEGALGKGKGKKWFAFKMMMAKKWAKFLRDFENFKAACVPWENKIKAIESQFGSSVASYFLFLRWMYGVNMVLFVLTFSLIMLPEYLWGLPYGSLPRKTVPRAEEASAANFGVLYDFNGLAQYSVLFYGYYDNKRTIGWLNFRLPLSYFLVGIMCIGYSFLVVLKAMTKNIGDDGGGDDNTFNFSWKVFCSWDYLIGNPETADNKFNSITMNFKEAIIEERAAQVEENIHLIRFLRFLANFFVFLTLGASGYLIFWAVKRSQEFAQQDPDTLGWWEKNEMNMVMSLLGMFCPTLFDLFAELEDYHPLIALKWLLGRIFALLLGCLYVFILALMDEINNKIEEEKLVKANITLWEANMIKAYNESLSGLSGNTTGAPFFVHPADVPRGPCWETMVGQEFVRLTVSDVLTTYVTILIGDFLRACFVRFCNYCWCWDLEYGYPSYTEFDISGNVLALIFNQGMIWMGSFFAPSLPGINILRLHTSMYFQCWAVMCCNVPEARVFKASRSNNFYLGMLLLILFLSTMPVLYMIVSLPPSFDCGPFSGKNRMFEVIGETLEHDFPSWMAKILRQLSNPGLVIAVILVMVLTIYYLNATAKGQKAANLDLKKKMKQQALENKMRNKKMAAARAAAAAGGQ", "experiment": "Background current before and after MTSET treatment in Tmc1-knockout OHCs expressing cysteine-substituted TMC1", "assay_type": "cell-based", "conditions": "Tmc1-knockout OHCs expressing TMC1-N447C, individual cells", "experimental": "(§1) Mouse Tmc1 and Tmc2 cDNAs were cloned into CMV-Script and pCDNA3.1- vectors, respectively. To obtain the Tmc1-deafness vector and amino-acid-substituted Tmc1 constructs, specific primers were designed and used for PCR (Supplementary File 1). […] In brief, the organ of Corti was isolated from P3 mice and cut into three pieces in Dulbecco’s modified Eagle’s medium/F12 with 1.5 μg/ml ampicillin. For electroporation, a glass pipette (2 μm tip diameter) was used to deliver cDNA plasmids (0.2 μg/μl in 1 × Hanks' balanced salt solution) to hair cells in the sensory epithelium. EGFP was used as an indicator for the selection of transfected hair cells. A series of three pulses at 60 V lasting 15 ms at 1 s intervals was applied to cochlear tissues by an electroporator (ECM Gemini X2, BTX, CA). The cochlear tissues were cultured for 1 day in vitro and then used for electrophysiological recording.\n(§2) All experiments were performed at room temperature (20–25°C). Briefly, the basilar membrane with hair cells was acutely dissected from neonatal mice. […] The acutely isolated or cultured basilar membrane was used for electrophysiological recording within 1 h. […] Hair cells were recorded with a patch-clamp amplifier (EPC 10 USB and Patchmaster software, HEKA Elektronik, Lambrecht/Pfalz, Germany).\n(§3) The sampling rate was 1 kHz for leak current recording, 50 kHz for the IV protocol and current-clamp recording, and 100 kHz for unitary channel recording. The voltage-clamp used a –70 mV holding potential, and the current-clamp was held at 0 pA. Only recordings with a current baseline <20 pA in NMDG solution were used for statistical analysis."}, "[2]": {"target": "T2, cysteine-substituted TMC1 constructs (Mus musculus, UniProt Q8R4P5, T532C)", "T2 construct": "control full-length TMC1 (TMC1_WT); expressed in transfected cells; host or cells: Tmc1-knockout mouse OHCs, injectoporation", "T2 sequence (Q8R4P5 1-757 T532C)": "T1 sequence (Q8R4P5 1-757 N447C) with C447N, T532C", "experiment": "Background current before and after MTSET treatment in Tmc1-knockout OHCs expressing cysteine-substituted TMC1", "assay_type": "cell-based", "conditions": "Tmc1-knockout OHCs expressing TMC1-T532C, individual cells", "experimental": "as §1, §2, §3"}}, "note": "Numbering of substitutions follows the chain as printed. “And” between values parts separate entries of the source, which are not always exact repeats. Equal entries are not always repeated.", "data": [{"compound": "C[N+](C)(C)CCSS(C)(=O)=O.[Br-]", "note": "[MTSET, 2-(trimethylammonium)ethyl methanethiosulfonate, bromide]", "values": [{"measurement": "amplitude of the background current after MTSET treatment", "setting": "[1]", "value": "-12.9811 and -13.0886 and -13.798 and -25.7685 and -27.4817 and -21.0828"}, {"measurement": "amplitude of the background current after MTSET treatment", "setting": "[2]", "value": "-61.9555 and -32.5794 and -12.1284 and -34.0535 and -31.604"}]}]}
